Numbering of substitutions follows the chain as printed.
Tests used:
[1] = target: T1, Islet amyloid polypeptide (IAPP, or amylin), wild-type (Homo sapiens, UniProt P10997); assay: ThT fluorescence amyloid assembly assay; type: biochemical; conditions: 10 μM IAPP, 50 μM compound, 160 mM ammonium acetate pH 7.4, 1% v/v DMSO, 30 °C, quiescent; mainly inhibits primary nucleation
T1 construct: SEC-purified monomer; N-terminally biotinylated at Lys1 (PEG4) for SPR only; cut from pro-islet amyloid polypeptide
T1 sequence (P10997 34-70): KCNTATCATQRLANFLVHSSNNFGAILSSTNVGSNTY

[2] = target: T1, Islet amyloid polypeptide (IAPP, or amylin), wild-type; assay: T1ρ and WaterLOGSY ligand-observed NMR; type: binding; conditions: IAPP monomer; 20 μM IAPP, 100 μM compound, 25 mM sodium phosphate pH 6.8, 1% v/v DMSO-d6, 5 °C
[3] = target: T2, Islet amyloid polypeptide (IAPP, or amylin), wild-type (Homo sapiens, UniProt P10997, S53G); assay: ThT fluorescence amyloid assembly assay; type: biochemical; conditions: 160 mM ammonium acetate pH 7.4, 1% v/v DMSO, 30 °C; inhibition of amyloid formation
T2 construct: SEC-purified monomer; N-terminally biotinylated at Lys1 (PEG4) for SPR only; cut from pro-islet amyloid polypeptide
T2 sequence (P10997 34-70 S53G): T1 sequence (P10997 34-70) with S20G

[4] = target: T1, Islet amyloid polypeptide (IAPP, or amylin), wild-type; assay: SPR, biotinylated IAPP on streptavidin chip; type: binding

Row | Structure (SMILES) | fold-change in half-time of amyloid formation at 50 μM [1] | ligand binding (observed by NMR) [2] | ThT fluorescence amyloid assembly assay [3] | Kd [4]
1 | Cc1ccc([C@@H]2O[C@H](CO)[C@@H](O)[C@H](O)[C@H]2O)cc1Cc1ccc(-c2ccc(F)cc2)s1 [canagliflozin] | 1.55 ± 0.22 fold | further evidence that canagliflozin binds IAPP monomers with strong changes in all protons | only canagliflozin was able to inhibit amyloid formation by the familial S20G variant of IAPP | > 150 µM
2 | COc1cc2nc(N3CCN(C(=O)C4COc5ccccc5O4)CC3)nc(N)c2cc1OC (centres unmarked) [doxazosin] | 1.61 ± 0.29 fold |  |  | 

From article PMC11987024, “Kinetic Steering of Amyloid Formation and Polymorphism by Canagliflozin, a Type-2 Diabetes Drug” (Journal of the American Chemical Society, 2025)
